Columns and labels:
[1] = refractive index (Na D-line) (dimensionless); xn = mol fraction of the nth substance listed; conditions: 101 kPa, Liquid, Standard Abbe refractometry
[2] = xn = mol fraction of the nth substance listed; conditions: 101 kPa, Liquid; for speed of sound: Sing-around technique in a fixed-path interferometer; for mass density: Vibrating tube method

CCOS(=O)(=O)[O-].CCc1cccc[n+]1CC [1,2-diethylpyridinium ethylsulfate] + O
Conditions	mass density, 288.15 K [kg/m3]	mass density, 298.15 K [kg/m3]	mass density, 308.15 K [kg/m3]	refractive index, 288.15 K	refractive index, 298.15 K	refractive index, 308.15 K	speed of sound, 288.15 K [m/s]	speed of sound, 298.15 K [m/s]	speed of sound, 308.15 K [m/s]
[1], x2 = 0	–	–	–	1.51631	1.5135	1.51067	–	–	–
[1], x2 = 0.0987	–	–	–	1.51478	1.51196	1.50914	–	–	–
[1], x2 = 0.1089	–	–	–	1.51458	1.51176	1.50896	–	–	–
[1], x2 = 0.2048	–	–	–	1.51266	1.50984	1.50705	–	–	–
[1], x2 = 0.3037	–	–	–	1.51023	1.50743	1.50461	–	–	–
[1], x2 = 0.3979	–	–	–	1.50723	1.5044	1.50156	–	–	–
[1], x2 = 0.4922	–	–	–	1.50325	1.50042	1.49759	–	–	–
[1], x2 = 0.6018	–	–	–	1.49668	1.49381	1.49094	–	–	–
[1], x2 = 0.7084	–	–	–	1.48656	1.48367	1.48071	–	–	–
[1], x2 = 0.8029	–	–	–	1.47121	1.46831	1.46515	–	–	–
[1], x2 = 0.8984	–	–	–	1.43938	1.43661	1.43375	–	–	–
[1], x2 = 0.9493	–	–	–	1.4043	1.40198	1.40013	–	–	–
[2], x2 = 0	1225.93	1219.26	1212.65	–	–	–	1774.5	1745.2	1718.4
[2], x2 = 0.0987	1224.31	1217.63	1211.14	–	–	–	1778.2	1749.1	1722.4
[2], x2 = 0.1089	1224.06	1217.36	1210.87	–	–	–	1778.4	1749.5	1723
[2], x2 = 0.2048	1222.4	1215.83	1209.22	–	–	–	1781.1	1753.9	1727.5
[2], x2 = 0.3037	1219.81	1213.23	1206.65	–	–	–	1787.5	1760.5	1734.4
[2], x2 = 0.3979	1216.82	1210.11	1203.43	–	–	–	1794.1	1767.4	1741.1
[2], x2 = 0.4922	1212.76	1206.04	1199.29	–	–	–	1803.5	1776.8	1750.6
[2], x2 = 0.6018	1205.78	1198.92	1192.05	–	–	–	1817.3	1790.5	1763.7
[2], x2 = 0.7084	1194.96	1187.92	1180.85	–	–	–	1836.4	1809.2	1782.1
[2], x2 = 0.8029	1177.39	1170.26	1163.05	–	–	–	1854.8	1827.2	1799.4
[2], x2 = 0.8984	1138.4	1131.51	1124.48	–	–	–	1846.6	1821.6	1795.6
[2], x2 = 0.9493	1092.23	1086.65	1080.72	–	–	–	1759.2	1746.2	1731.8

Source: the NIST ThermoML archive (doi:10.1021/je201334p)
